Assay results reported in ChEMBL document CHEMBL1130879, “trans-3-Benzyl-4-hydroxy-7-chromanylbenzoic acid derivatives as antagonists of the leukotriene B4 (LTB4) receptor” (Bioorg Med Chem Lett, 1998).

Experiments:
Leukotriene B4 receptor [1] = target: T1, Leukotriene B4 receptor (Homo sapiens, UniProt Q9NPC1+Q15722); assay: Ability to inhibit LTB4-induced chemotaxis of isolated human neutrophils.; type: functional
Leukotriene B4 receptor [2] = target: T1, Leukotriene B4 receptor; assay: Ability to inhibit LTB4 binding to LTB receptors on isolated human neutrophils.; type: protein assay
[3] = target: Leukotriene B4 receptor (Cavia porcellus); assay: Compound was evaluated for its ability to inhibit [3H]LTB4 binding to LTB4 receptors on guinea pig spleen membranes
[4] = Ratio of CD11b(WB) IC50 to CD11b (IC)IC50; type: functional
Leukotriene B4 receptor [5] = target: T1, Leukotriene B4 receptor; assay: Ability to inhibit LTB4-induced CD11b up-regulation on isolated human neutrophils in whole blood; type: functional, tissue-based
Leukotriene B4 receptor [6] = target: T1, Leukotriene B4 receptor; assay: Ability to inhibit LTB4-induced CD11b up-regulation on isolated human neutrophils; type: functional

IC50 (Leukotriene B4 receptor [1]) [nM]	IC50 (Leukotriene B4 receptor [2]) [nM]	IC50 [3] [nM]	IC50 (Leukotriene B4 receptor [5]) [nM]	IC50 (Leukotriene B4 receptor [6]) [nM]	Structure (SMILES)	Ratio [4]
1800	54				O=C(O)c1ccc(F)cc1-c1ccc2c(c1)OC[C@H](Cc1ccc(C(F)(F)F)cc1)[C@H]2O	
		4700			CNC(=O)c1ccc(C(=O)O)c(-c2ccc3c(c2)OC[C@H](Cc2ccccc2)[C@H]3O)c1	
210	190				CC(C)c1ccc(C[C@H]2COc3cc(-c4cc(F)ccc4C(=O)O)ccc3[C@@H]2O)cc1	
400	54				O=C(O)c1ccc(Cl)cc1-c1ccc2c(c1)OC[C@H](Cc1ccc(F)cc1)[C@H]2O	
2250	100				O=C(O)c1ccc(Cl)cc1-c1ccc2c(c1)OC[C@H](Cc1ccc3ccccc3c1)[C@H]2O	
300	24				O=C(O)c1cc(F)ccc1-c1ccc2c(c1)OC[C@H](Cc1ccccc1)[C@H]2O	
40	5		200	300	O=C(O)c1c(F)cc(F)cc1-c1ccc2c(c1)OC[C@H](Cc1ccccc1)[C@H]2O	0.7
32	35				O=C(O)c1ccc(F)cc1-c1ccc2c(c1)OC[C@H](CCc1ccccc1)[C@H]2O	
		160			COc1ccc(C(=O)O)c(-c2ccc3c(c2)OC[C@H](Cc2ccccc2)[C@H]3O)c1	
		> 1000			O=C(O)c1ccc(C(=O)O)c(-c2ccc3c(c2)OC[C@H](Cc2ccccc2)[C@H]3O)c1	
		120			O=C(O)c1ccccc1-c1ccc2c(c1)OC[C@H](Cc1ccccc1)[C@H]2O	
26	12	59			O=C(O)c1ccc(Cl)cc1-c1ccc2c(c1)OC[C@H](Cc1ccccc1)[C@H]2O (stereo in doubt; 5)	
30	14		1300	265	O=C(O)c1ccc(Cl)cc1-c1ccc2c(c1)OC[C@H](Cc1ccccc1)[C@H]2O (stereo in doubt; 6) [listing 1 of 2 here]	
83	200				O=C(O)c1ccc(Cl)cc1-c1ccc2c(c1)OC[C@H](Cc1ccccc1)[C@H]2O (stereo in doubt; 7)	
5	12				O=C(O)c1ccc(F)cc1-c1ccc2c(c1)OC[C@H](Cc1ccccc1)[C@H]2O (stereo in doubt; 8)	
14	3		600	240	O=C(O)c1ccc(F)cc1-c1ccc2c(c1)OC[C@H](Cc1ccccc1)[C@H]2O (stereo in doubt; 9) [listing 1 of 2 here]	
5	27		3500	3000	O=C(O)c1ccc(F)cc1-c1ccc2c(c1)OC[C@H](Cc1ccccc1)[C@H]2O (stereo in doubt; 10) [listing 1 of 2 here]	
7	13				O=C(O)c1ccc(C(F)(F)F)cc1-c1ccc2c(c1)OC[C@H](Cc1ccccc1)[C@H]2O (stereo in doubt; 15) [CP-195543]	
2.4	6.8		660	280	O=C(O)c1ccc(C(F)(F)F)cc1-c1ccc2c(c1)OC[C@H](Cc1ccccc1)[C@H]2O (stereo in doubt; 16) [CP-195543]	
2	56				O=C(O)c1ccc(C(F)(F)F)cc1-c1ccc2c(c1)OC[C@H](Cc1ccccc1)[C@H]2O (stereo in doubt; 17) [CP-195543]	
6	4		1700	520	O=C(O)c1ccc(Cl)cc1-c1ccc2c(c1)OC[C@H](Cc1ccc(-c3ccccc3)cc1)[C@H]2O (stereo in doubt; 22) [listing 1 of 2 here]	
26	8		3900	590	O=C(O)c1ccc(Cl)cc1-c1ccc2c(c1)OC[C@H](Cc1ccc(-c3ccccc3)cc1)[C@H]2O (stereo in doubt; 23) [listing 1 of 2 here]	
56	4		700	280	O=C(O)c1ccc(F)cc1-c1ccc2c(c1)OC[C@H](Cc1ccc(-c3ccccc3)cc1)[C@H]2O (stereo in doubt; 24) [listing 1 of 2 here]	
5	14		5100	700	O=C(O)c1ccc(F)cc1-c1ccc2c(c1)OC[C@H](Cc1ccc(-c3ccccc3)cc1)[C@H]2O (stereo in doubt; 25) [listing 1 of 2 here]	
6	38		1900	120	O=C(O)c1ccc(C(F)(F)F)cc1-c1ccc2c(c1)OC[C@H](Cc1ccc(-c3ccccc3)cc1)[C@H]2O (stereo in doubt; 26) [listing 1 of 2 here]	
7	27		4000	820	O=C(O)c1ccc(C(F)(F)F)cc1-c1ccc2c(c1)OC[C@H](Cc1ccc(-c3ccccc3)cc1)[C@H]2O (stereo in doubt; 27) [listing 1 of 2 here]	

The next lines start with the compound.

Structure (SMILES)	IC50 (Leukotriene B4 receptor [1]) [nM]	IC50 (Leukotriene B4 receptor [2]) [nM]	IC50 [3] [nM]	IC50 (Leukotriene B4 receptor [5]) [nM]	IC50 (Leukotriene B4 receptor [6]) [nM]	Ratio [4]
O=C(O)c1c(-c2ccc3c(c2)OC[C@H](Cc2ccccc2)[C@H]3O)cccc1C(F)(F)F	24	46		890	750	1.2
O=C(O)c1ccc(Cl)cc1-c1ccc2c(c1)OC[C@H](Cc1ccc(C(F)(F)F)cc1)[C@H]2O	9000	400				
NS(=O)(=O)c1ccc(F)cc1-c1ccc2c(c1)OC[C@H](Cc1ccccc1)[C@H]2O	17	37		> 10000	540	
O[C@H]1c2ccc(-c3cc(F)ccc3-c3nn[nH]n3)cc2OC[C@@H]1Cc1ccccc1	110	20				
OCc1ccc(C(F)(F)F)cc1-c1ccc2c(c1)OC[C@H](Cc1ccccc1)[C@H]2O	9	1700				
O=C(O)c1ccc(C(F)(F)F)cc1-c1ccc2c(c1)OC[C@H](Cc1ccc(Cl)cc1)[C@H]2O	58	70				
COC(=O)c1ccc(Cl)cc1-c1ccc2c(c1)OC[C@H](Cc1ccccc1)[C@H]2O	6400	1700				
O=C(O)c1ccc(Cl)cc1-c1ccc2c(c1)OC[C@H](Cc1ccccc1)[C@H]2O (stereo in doubt; 6) [listing 2 of 2 here]						4.9
O=C(O)c1ccc(F)cc1-c1ccc2c(c1)OC[C@H](Cc1ccccc1)[C@H]2O (stereo in doubt; 9) [listing 2 of 2 here]						2.5
O=C(O)c1ccc(F)cc1-c1ccc2c(c1)OC[C@H](Cc1ccccc1)[C@H]2O (stereo in doubt; 10) [listing 2 of 2 here]						1.2
O=C(O)c1c(F)cccc1-c1ccc2c(c1)OC[C@H](Cc1ccccc1)[C@H]2O (stereo in doubt; 12)	10	22				
O=C(O)c1c(F)cccc1-c1ccc2c(c1)OC[C@H](Cc1ccccc1)[C@H]2O (stereo in doubt; 13) [listing 1 of 2 here]	40	11		1000	400	
O=C(O)c1c(F)cccc1-c1ccc2c(c1)OC[C@H](Cc1ccccc1)[C@H]2O (stereo in doubt; 13) [listing 2 of 2 here]						2.5
O=C(O)c1c(F)cccc1-c1ccc2c(c1)OC[C@H](Cc1ccccc1)[C@H]2O (stereo in doubt; 14)	650	240				
O=C(O)c1ccc(C(F)(F)F)cc1-c1ccc2c(c1)OC[C@H](Cc1ccccc1)[C@H]2O (stereo in doubt; 16)						2.3
O=C(O)c1ccc(Cl)cc1-c1ccc2c(c1)OC[C@H](Cc1ccc(-c3ccccc3)cc1)[C@H]2O (stereo in doubt; 22) [listing 2 of 2 here]						3.3
O=C(O)c1ccc(Cl)cc1-c1ccc2c(c1)OC[C@H](Cc1ccc(-c3ccccc3)cc1)[C@H]2O (stereo in doubt; 23) [listing 2 of 2 here]						6.6
O=C(O)c1ccc(F)cc1-c1ccc2c(c1)OC[C@H](Cc1ccc(-c3ccccc3)cc1)[C@H]2O (stereo in doubt; 24) [listing 2 of 2 here]						2.5
O=C(O)c1ccc(F)cc1-c1ccc2c(c1)OC[C@H](Cc1ccc(-c3ccccc3)cc1)[C@H]2O (stereo in doubt; 25) [listing 2 of 2 here]						7.3
O=C(O)c1ccc(C(F)(F)F)cc1-c1ccc2c(c1)OC[C@H](Cc1ccc(-c3ccccc3)cc1)[C@H]2O (stereo in doubt; 26) [listing 2 of 2 here]						15.8
O=C(O)c1ccc(C(F)(F)F)cc1-c1ccc2c(c1)OC[C@H](Cc1ccc(-c3ccccc3)cc1)[C@H]2O (stereo in doubt; 27) [listing 2 of 2 here]						4.9
O=S(=O)(Nc1ccc(F)cc1-c1ccc2c(c1)OC[C@H](Cc1ccccc1)[C@H]2O)C(F)(F)F (stereo in doubt; 38) [listing 1 of 2 here]	15	3.8		330	360	
O=S(=O)(Nc1ccc(F)cc1-c1ccc2c(c1)OC[C@H](Cc1ccccc1)[C@H]2O)C(F)(F)F (stereo in doubt; 38) [listing 2 of 2 here]						0.9
O=S(=O)(Nc1ccc(F)cc1-c1ccc2c(c1)OC[C@H](Cc1ccccc1)[C@H]2O)C(F)(F)F (stereo in doubt; 39)	44	50		> 3000	> 3000	
